The values below come from patent publication US20110104144A1, “METHODS FOR TREATING CUTANEOUS LUPUS USING AMINOISOINDOLINE COMPOUNDS” (CELGENE CORPORATION, priority 2005, published 2011).

One assay deals with P-Selectin. Description: HUVEC cell surface expression of P-Selectin by flow cytometry. The format is cell-based, Human. As to conditions: 10 μM. The method, then:
(§1) A) Materials. Human Umbilical Vein Endothelial Cells (HUVEC) sent from LifeBank, were tested in Experiments A-K with several adhesion molecules. The adhesion molecules tested were CD51/CD61FITC (obtained from BD PharMingen, San Diego, Calif.; Catalog No. 555505), ICAM-1 PE also known as CD54 (obtained from BD PharMingen, San Diego, Calif.; Catalog No. 555511), ICAM-2 also known as CD102 (obtained from Research Diagnostics Inc., Concord, Mass.; Catalog No. RDI-CBL539FT), VCAM-1 (obtained from BD PharMingen, San Diego, Calif.; Catalog No. 555647), P-Selectin FITC (obtained from R&D Systems, Inc., Minneapolis, Minn.; Catalog No. BBA34), E-Selectin FITC (obtained from R&D Systems, Inc., Minneapolis, Minn.; Catalog No. BBA21), HLA Class I FITC (obtained from BD PharMingen, San Diego, Calif.; Catalog No. 555553), HLA Class II PE (obtained from BD PharMingen, San Diego, Calif.; Catalog No. 555558), CD44 FITC (obtained from BD PharMingen, San Diego, Calif.; Catalog No. 347943), CD144 (Cadherin VE) (obtained from CHEMICON International, Inc., Temecula, Calif.; Catalog No. MAB1989), IgG2a FITC (obtained from BD PharMingen, San Diego, Calif.; Cat #556652), Ms IgG2a (obtained from CHEMICON International, Inc., Temecula, Calif.; Cat. No. PP102), IgG1 FITC (obtained from BD PharMingen, San Diego, Calif.; Cat. No. 349041) and IgG1 PE (obtained from BD PharMingen, San Diego, Calif.; Cat. No. 349043).
(§2) Compound (1) ((+)-2-[1-(3-ethoxy-4-methoxyphenyl)-2-methylsulfonylethyl]-4-acetylaminoisoindoline-1,3-dione) and Compound (2) (4-(amino)-2-(2,6-dioxo(3-piperidyl))-isoindoline-1,3-dione) were obtained according to the preparation procedures disclosed herein. 16,16-Dimethyl-PGE2 (hereinafter PGE2) was obtained from BIOMOL International, L.P. (Plymouth Meeting, Pa.; Catalog No. PG-021). TNF-αwas obtained from Pierce Biotechnology (Rockford, Ill.; Catalog No. RTNFA 10).
B) Methods. HUVEC's were plated on 6-well plates at a concentration of 1×10^5 cells/well in 3 ml EBM® endothelial basal media (obtained from Cambrex Corporation, East Rutherford, N.J.; Catalog No. CC-3121) and singlequots (obtained from Cambrex Corporation, East Rutherford, N.J.; Catalog No. CC-4133). The cells were incubated overnight in a 37° C. and 5% CO2 humidified incubator to allow cells to attach. The old media was removed in next day and replaced with 3 ml fresh EBM® endothelial basal media. Then, samples of 3 μl of 10 mM of Compound (1), Compound (2), PGE2 and a mixture of Compound (1) and PGE2 were added separately to each well of the plates in duplicate to give a final concentration of 10 μM. An unstimulated DMSO control and a TNF-α-stimulated control were also added in duplicate. The plates were incubated in a 37° C. and 5% CO2 humidified incubator for 1 hr. […] The plates were incubated overnight in a 37° C. and 5% CO2 humidified incubator. The cells were also tested without TNF-α. The media was removed in the next day and each well was washed with 3 ml of phosphate buffered saline (PBS). Then, 3 ml of PBS containing 1 mM of EDTA (ethylenediaminetetraacetate) was added to each well to allow the cells to detach. Once the cells detached, they were gently scraped and placed in 4.5 ml Falcon tubes. The tubes were then centrifuged at 1200 RPM for 8 minutes at 4° C. The supernatant was carefully removed. Next, 50 μl of PBS-FACS buffer (5% fetal bovine serum (FBS), 0.02% sodium azide in PBS) and 20 μl of antibodies were added to all tubes as follows:
After the antibodies were added, the tubes were incubated on ice for 30 minutes and covered with foil. Then, the tubes were centrifuged at 1200 RPM for 8 minutes at 4° C. The supernatant was carefully removed. The cells were re-suspended in 2 ml of PBS-FACS buffer and centrifuged again as above. The supernatant was carefully removed again and the cells were re-suspended in 500 μl of PBS-FACS buffer. The tubes were then analyzed using a flow cytometer. […]
(In general: A flow cytometer gives signals particle by particle.)

The subject of a further assay is CD51/61. As to the kind of experiment: HUVEC cell surface expression of CD51/61 by flow cytometry. The class given is cell-based, Human. The conditions noted are these: unstimulated, 10 μM, FIG. 1. The method, then:
as §1, §2
B) Methods. […]

On to `CCOc1cc(C(CS(C)(=O)=O)N2C(=O)c3cccc(NC(C)=O)c3C2=O)ccc1OC` (single isomer, unassigned; (+)) [Compound (1), (+)-2-[1-(3-ethoxy-4-methoxyphenyl)-2-methylsulfonylethyl]-4-acetylaminoisoindoline-1,3-dione], for which the “increase of TNF-α-induced cell expression of P-Selectin above baseline” value in the assay with P-Selectin (TNF-α (1 ng/ml) stimulated, FIG. 3) stood at 40%. For the same compound, in the assay with P-Selectin (TNF-α stimulated, FIG. 5), the “increase of P-Selectin cell surface expression” value is “approximately 35%”. The “inhibition of P-Selectin expression” value in the assay with P-Selectin (unstimulated, FIG. 2) is recorded as “approximately 55%”. Besides, the “CD51/61 cell surface expression compared to untreated conditions” value in the assay on CD51/61 is “unaffected”.
